Structures can show the parent of a compound that is named as a salt. Where two headings read alike, the source gives them in different places.
What was measured:
P. aeruginosa (Pa) = experiment: Broth microdilution MIC, P. aeruginosa; assay type: cell-based; conditions: Pseudomonas aeruginosa, read-out: Pa + bicarb 25 (MIC)
Outline: (§1)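 Colonies grown in CAMHB at 35±2° C to 0.5 McFarland (A600nm), then diluted and added at 5×10^4 CFU/well to two-fold compound series in CAMHB, bicarbonate-supplemented CAMHB (25 mM) or serum-supplemented CAMHB (0-50% human serum, heat inactivated). MIC read per modified CLSI M07-A9.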

E. faecalis (Ef) = experiment: Broth microdilution MIC, E. faecalis; assay type: cell-based; conditions: Enterococcus faecalis, read-out: Ef + bicarb 25 (MIC)
Outline: as §1

E. coli (Ec) = experiment: Broth microdilution MIC, E. coli; assay type: cell-based; conditions: Escherichia coli, read-out: E. coli + bicarb 25 (MIC)
Outline: as §1

S. aureus (Sa) = experiment: Broth microdilution MIC, S. aureus; assay type: cell-based; conditions: Staphylococcus aureus, read-out: Sa + bicarb 25 (MIC)
Outline: as §1

A. baumannii (Ab) = experiment: Broth microdilution MIC, A. baumannii; assay type: cell-based; conditions: Acinetobacter baumannii, read-out: Ab + bicarb 25 (MIC)
Outline: as §1

E. coli S30 extract = experiment: E. coli S30 extract: inhibition of bacterial protein synthesis (luciferase); assay type: biochemical; conditions: 37° C. 1 hour
Outline: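 Coupled transcription-translation in E. coli S30 extract, programmed with pBESTluc plasmid, was run with 8-point 2-fold compound dilutions for 1 h at 37 °C. After a cold stop, luciferase luminescence was read and percent inhibition calculated against no-inhibitor controls.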

[1] = target: Rabbit Reticulocyte Lysate; experiment: Rabbit Reticulocyte Lysate: inhibition of eukaryotic protein synthesis (luciferase); assay type: biochemical; conditions: 30° C. 90 minutes, read-out: Retic. IC50
Outline: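 Nuclease-treated rabbit reticulocyte lysate translating luciferase control RNA with complete amino acids; compounds in 8-point 2-fold dilutions, 90 min at 30° C. Luminescence read after luciferase reagent; % inhibition versus water (no-inhibitor) control, no-RNA wells as background.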

CCN(C[C@H]1CC[C@H](n2ccc(NC(=O)N3CCN(C(=O)C(C)(C)N)CC3)nc2=O)CC1)C1CC2(CC(N)C2)C1 (stereo partly drawn) [Compound 50, trans-4-(2-Amino-2-methylpropanoyl)-N-(1-(4-(((6-aminospiro[3.3]heptan-2-yl)(ethyl)amino)methyl)cyclohexyl)-2-oxo-1,2-dihydropyrimidin-4-yl)piperazine-1-carboxamide hydrochloride salt]
MIC (P. aeruginosa (Pa)): > 32 µg/mL
MIC (E. faecalis (Ef)): < 8 µg/mL
MIC (E. coli (Ec)): < 8 µg/mL
MIC (S. aureus (Sa)): < 8 µg/mL
MIC (A. baumannii (Ab)): 8 to 32 µg/mL
IC50 (E. coli S30 extract): < 0.5 µM
IC50 [1]: ≥ 1 µM

CC(C)(N)C(=O)N1CCN(C(=O)Nc2ccn([C@H]3CC[C@H](CN4CC[C@H](CN)C4)CC3)c(=O)n2)CC1 [Compound 51, (R)-Trans-4-(2-amino-2-methylpropanoyl)-N-(1-(4-((3-(aminomethyl)pyrrolidin-1-yl)methyl)cyclohexyl)-2-oxo-1,2-dihydropyrimidin-4-yl)piperazine-1-carboxamide Hydrochloride]
MIC (P. aeruginosa (Pa)): > 32 µg/mL
MIC (E. faecalis (Ef)): 8 to 32 µg/mL
MIC (E. coli (Ec)): < 8 µg/mL
MIC (S. aureus (Sa)): < 8 µg/mL
MIC (A. baumannii (Ab)): > 32 µg/mL
IC50 (E. coli S30 extract): < 0.5 µM
IC50 [1]: ≥ 1 µM

CC(C)(N)C(=O)N1CCN(C(=O)Nc2ccn([C@H]3CC[C@H](CN4CC(N)C4)CC3)c(=O)n2)CC1 [Compound 52, trans-4-(2-Amino-2-methylpropanoyl)-N-(1-(4-((3-aminoazetidin-1-yl)methyl)cyclohexyl)-2-oxo-1,2-dihydropyrimidin-4-yl)piperazine-1-carboxamide hydrochloride salt]
MIC (P. aeruginosa (Pa)): > 32 µg/mL
MIC (E. faecalis (Ef)): > 32 µg/mL
MIC (E. coli (Ec)): < 8 µg/mL
MIC (S. aureus (Sa)): 8 to 32 µg/mL
MIC (A. baumannii (Ab)): > 32 µg/mL
IC50 (E. coli S30 extract): 0.5 to 1 µM
IC50 [1]: ≥ 1 µM

CC(C)(N)C(=O)N1CCN(C(=O)Nc2ccn(C3CCC(CNC4CC5(CC(N)C5)C4)CC3)c(=O)n2)CC1 (centres unmarked) [Compound 53, 4-(2-Amino-2-methylpropanoyl)-N-(1-(4-(((6-aminospiro[3.3]heptan-2-yl)amino)methyl)cyclohexyl)-2-oxo-1,2-dihydropyrimidin-4-yl)piperazine-1-carboxamide hydrochloride salt]
MIC (P. aeruginosa (Pa)): > 32 µg/mL
MIC (E. faecalis (Ef)): 8 to 32 µg/mL
MIC (E. coli (Ec)): 8 to 32 µg/mL
MIC (S. aureus (Sa)): < 8 µg/mL
MIC (A. baumannii (Ab)): > 32 µg/mL
IC50 (E. coli S30 extract): < 0.5 µM
IC50 [1]: ≥ 1 µM

CCN(C[C@H]1CC[C@H](n2ccc(N)nc2=O)CC1)[C@H]1CC[C@H](N)CC1 [Compound 54, 4-amino-1-((trans)-4-((((trans)-4-aminocyclohexyl)(ethyl)amino)methyl)cyclohexyl)pyrimidin-2(1H)-one]
MIC (P. aeruginosa (Pa); P. aeruginosa, CAMHB supplemented with sodium bicarbonate 25 mM): > 32 µg/mL
MIC (E. faecalis (Ef); E. faecalis, CAMHB supplemented with sodium bicarbonate 25 mM): > 32 µg/mL
MIC (E. coli (Ec); E. coli, CAMHB supplemented with sodium bicarbonate 25 mM): > 32 µg/mL
MIC (S. aureus (Sa); S. aureus, CAMHB supplemented with sodium bicarbonate 25 mM): > 32 µg/mL
MIC (A. baumannii (Ab); A. baumannii, CAMHB supplemented with sodium bicarbonate 25 mM): > 32 µg/mL
IC50 (E. coli S30 extract): ≥ 1 µM
IC50 [1]: ≥ 1 µM

Reference: patent US20250084041A1, “ANTIMICROBIAL COMPOUNDS AND METHODS” (Curza Global, LLC, priority 2021, published 2025)
